How the values were obtained:
[1] = biological target: T1, human PDE10A full length (Homo sapiens, UniProt Q9Y233); test: PDE10A Scintillation Proximity Assay (SPA), human PDE10A full length assay; format: biochemical; conditions: 50 nM cGMP + 50 nM [3H]-cGMP, 20 minutes at room temperature, read-out: PDE10A inhibition IC50
T1 construct: purchased Enzo Life Science, Lausen, Switzerland SE-534
Outline: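 SPA format with full-length enzyme in 20 mM HEPES pH 7.5, 10 mM MgCl2, 0.05 mg/ml BSA, substrate 50 nM cGMP plus 50 nM [3H]-cGMP. Reaction started with substrate, run 20 min at room temperature, stopped with YSi-SPA beads in zinc sulphate. IC50 from scintillation counts over an inhibitor concentration range.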

T1 sequence (Q9Y233 1-779 isoform Q9Y233-1): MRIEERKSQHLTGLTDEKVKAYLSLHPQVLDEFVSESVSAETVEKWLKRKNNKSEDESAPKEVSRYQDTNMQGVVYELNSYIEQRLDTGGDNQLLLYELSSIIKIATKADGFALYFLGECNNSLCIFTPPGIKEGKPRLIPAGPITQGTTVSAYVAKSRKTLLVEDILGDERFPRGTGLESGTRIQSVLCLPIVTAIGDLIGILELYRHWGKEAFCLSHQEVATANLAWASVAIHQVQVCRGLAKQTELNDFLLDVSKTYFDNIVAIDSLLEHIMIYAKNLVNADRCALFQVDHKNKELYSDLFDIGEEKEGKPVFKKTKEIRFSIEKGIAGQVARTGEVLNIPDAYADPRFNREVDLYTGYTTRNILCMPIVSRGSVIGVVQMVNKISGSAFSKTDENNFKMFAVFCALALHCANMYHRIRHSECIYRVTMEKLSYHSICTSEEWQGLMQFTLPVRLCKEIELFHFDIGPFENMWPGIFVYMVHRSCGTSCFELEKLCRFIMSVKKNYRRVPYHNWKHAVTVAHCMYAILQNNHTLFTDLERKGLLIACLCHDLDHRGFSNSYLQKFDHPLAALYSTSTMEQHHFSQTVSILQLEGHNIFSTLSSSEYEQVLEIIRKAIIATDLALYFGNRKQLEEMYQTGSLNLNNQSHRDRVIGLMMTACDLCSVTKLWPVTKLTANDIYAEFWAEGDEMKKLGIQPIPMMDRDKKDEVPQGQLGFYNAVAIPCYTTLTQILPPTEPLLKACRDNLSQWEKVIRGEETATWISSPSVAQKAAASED

Compound | IC50 [1] | melting point
COC(=O)c1cnn(C)c1C(=O)Nc1ccn2nc(-c3ccccc3)nc2c1 [Example 1, methyl 1-methyl-5-(2-phenyl-[1,2,4]triazolo[1,5-a]pyridin-7-ylcarbamoyl)-1H-pyrazole-4-carboxylate] | 14.6 nM | 243 to 247 °C
COc1ccccc1-c1nc2cc(NC(=O)c3c(C(=O)N4CCC4)cnn3C)ccn2n1 [Example 102, 4-(Azetidine-1-carbonyl)-2-methyl-2H-pyrazole-3-carboxylic acid [2-(2-methoxy-phenyl)-[1,2,4]triazolo[1,5-a]pyridin-7-yl]-amide] | 0.65 nM | 258.1 °C
Cn1ncc(C(=O)N2CCOCC2)c1C(=O)Nc1ccn2nc(-c3cccnc3F)nc2c1 [Example 111, 2-Methyl-4-(morpholine-4-carbonyl)-2H-pyrazole-3-carboxylic acid [2-(2-fluoro-pyridin-3-yl)-[1,2,4]triazolo[1,5-a]pyridin-7-yl]-amide] | 6.62 nM | 267 to 269 °C
Cn1ncc(C(=O)N2CCOCC2)c1C(=O)Nc1ccn2nc(N3CCOCC3)nc2c1 [Example 29, 1-Methyl-4-(morpholine-4-carbonyl)-N-(2-morpholino-[1,2,4]triazolo[1,5-a]pyridin-7-yl)-1H-pyrazole-5-carboxamide] | 40.5 nM | 206 to 208 °C
CCN(C)c1nc2cc(NC(=O)c3c(C(=O)N4CCC4)cnn3C)ccn2n1 [Example 58, 4-(Azetidine-1-carbonyl)-2-methyl-2H-pyrazole-3-carboxylic acid [2-(ethyl-methyl-amino)-[1,2,4]triazolo[1,5-a]pyridin-7-yl]-amide] | 7.03 nM | 229 to 232 °C
Cn1ncc(C(=O)N2CCOCC2)c1C(=O)Nc1ccn2nc(-c3ccnc(F)c3)nc2c1 [Example 117, N-(2-(2-fluoropyridin-4-yl)-[1,2,4]triazolo[1,5-a]pyridin-7-yl)-1-methyl-4-(morpholine-4-carbonyl)-1H-pyrazole-5-carboxamide] | 15 nM | > 280 °C
Cc1cn2nc(-c3ccccc3)nc2cc1NC(=O)c1c(C(=O)N2CCC2)cnn1C [Example 10, 4-(Azetidine-1-carbonyl)-1-methyl-N-(6-methyl-2-phenyl-[1,2,4]triazolo[1,5-a]pyridin-7-yl)-1H-pyrazole-5-carboxamide] | 0.19 nM | 226 to 228 °C
CN(C)C(=O)c1cnn(C)c1C(=O)Nc1ccn2nc(-c3cccnc3F)nc2c1 [Example 109, N5-(2-(2-fluoropyridin-3-yl)-[1,2,4]triazolo[1,5-a]pyridin-7-yl)-N4,N4,1-trimethyl-1H-pyrazole-4,5-dicarboxamide] | 3.74 nM | 249 to 251 °C
CC(C)NC(=O)c1cnn(C)c1C(=O)Nc1ccn2nc(-c3ccccc3)nc2c1 [Example 19, N4-isopropyl-1-methyl-N5-(2-phenyl-[1,2,4]triazolo[1,5-a]pyridin-7-yl)-1H-pyrazole-4,5-dicarboxamide] | 5.38 nM | > 250 °C
COC1CN(C(=O)c2cnn(C)c2C(=O)Nc2ccn3nc(-c4ccccc4)nc3c2)C1 [Example 24, 4-(3-Methoxyazetidine-1-carbonyl)-1-methyl-N-(2-phenyl-[1,2,4]triazolo[1,5-a]pyridin-7-yl)-1H-pyrazole-5-carboxamide] | 21.5 nM | 269 to 270 °C
Cn1ncc(C(=O)N2CCS(=O)(=O)CC2)c1C(=O)Nc1ccn2nc(-c3ccccc3)nc2c1 [Example 22, 4-(1,1-Dioxo-thiomorpholine-4-carbonyl)-2-methyl-2H-pyrazole-3-carboxylic acid (2-phenyl-[1,2,4]triazolo[1,5-a]pyridin-7-yl)-amide] | 9.01 nM | > 250 °C
CN(C)c1nc2cc(NC(=O)c3c(C(=O)N4CC(F)C4)cnn3C)ccn2n1 [Example 38, N-(2-(dimethylamino)-[1,2,4]triazolo[1,5-a]pyridin-7-yl)-4-(3-fluoroazetidine-1-carbonyl)-1-methyl-1H-pyrazole-5-carboxamide] | 19.6 nM | 243 to 244 °C
CN(C)c1nc2cc(NC(=O)c3c(C(=O)N4CCCC4)cnn3C)ccn2n1 [Example 37, N-(2-(dimethylamino)-[1,2,4]triazolo[1,5-a]pyridin-7-yl)-1-methyl-4-(pyrrolidine-1-carbonyl)-1H-pyrazole-5-carboxamide] | 4.46 nM | 199 to 201 °C
CCN(C)C(=O)c1cnn(C)c1C(=O)Nc1ccn2nc(N3CCOCC3)nc2c1 [Example 41, N4-ethyl-N4,1-dimethyl-N5-(2-morpholino-[1,2,4]triazolo[1,5-a]pyridin-7-yl)-1H-pyrazole-4,5-dicarboxamide] | 6.68 nM | 201 to 203 °C
COCCNC(=O)c1nc2cc(NC(=O)c3c(C(=O)N4CCC4)cnn3C)ccn2n1 [Example 64, 7-(4-(Azetidine-1-carbonyl)-1-methyl-1H-pyrazole-5-carboxamido)-N-(2-methoxyethyl)-[1,2,4]triazolo[1,5-a]pyridine-2-carboxamide] | 104 nM | 159 to 161 °C
COC1CN(C(=O)c2cnn(C)c2C(=O)Nc2ccn3nc(-c4cccc(F)c4)nc3c2)C1 [Example 107, 4-(3-Methoxy-azetidine-1-carbonyl)-2-methyl-2H-pyrazole-3-carboxylic acid [2-(3-fluoro-phenyl)-[1,2,4]triazolo[1,5-a]pyridin-7-yl]-amide] | 4.7 nM | 255 to 257 °C
Cn1ncc(C(=O)N2CCOCC2)c1C(=O)Nc1ccn2nc(-c3cccc(F)c3)nc2c1 [Example 106, 2-Methyl-4-(morpholine-4-carbonyl)-2H-pyrazole-3-carboxylic acid [2-(3-fluoro-phenyl)-[1,2,4]triazolo[1,5-a]pyridin-7-yl]-amide] | 1.54 nM | 212 to 214 °C
CCN(C)C(=O)c1cnn(C)c1C(=O)Nc1ccn2nc(-c3ccccc3)nc2c1 [Example 5, N4-ethyl-N4,1-dimethyl-N5-(2-phenyl-[1,2,4]triazolo[1,5-a]pyridin-7-yl)-1H-pyrazole-4,5-dicarboxamide] | 0.5 nM | 193 to 194 °C
Cn1ncc(C(=O)N2CCOCC2)c1C(=O)Nc1cc2nc(-c3ccccc3)nn2cc1F [Example 32, 2-Methyl-4-(morpholine-4-carbonyl)-2H-pyrazole-3-carboxylic acid (6-fluoro-2-phenyl-[1,2,4]triazolo[1,5-a]pyridin-7-yl)-amide] | 0.98 nM | 224 to 225 °C
Cc1cc(-c2nc3cc(NC(=O)c4c(C(=O)N5CCC5)cnn4C)ccn3n2)ccn1 [Example 67, 4-(Azetidine-1-carbonyl)-2-methyl-2H-pyrazole-3-carboxylic acid [2-(2-methyl-pyridin-4-yl)-[1,2,4]triazolo[1,5-a]pyridin-7-yl]-amide] | 2.06 nM | 210 to 211 °C
CCNC(=O)c1cnn(C)c1C(=O)Nc1ccn2nc(-c3ccccc3)nc2c1 [Example 7, N4-ethyl-1-methyl-N5-(2-phenyl-[1,2,4]triazolo[1,5-a]pyridin-7-yl)-1H-pyrazole-4,5-dicarboxamide] | 1.63 nM | 253 to 255 °C
Cn1ncc(C(=O)N2CCCC2)c1C(=O)Nc1cc2nc(-c3ccccc3)nn2cc1F [Example 31, N-(6-fluoro-2-phenyl-[1,2,4]triazolo[1,5-a]pyridin-7-yl)-1-methyl-4-(pyrrolidine-1-carbonyl)-1H-pyrazole-5-carboxamide] | 0.48 nM | 250 to 251 °C
CN(C)C(=O)c1cnn(C)c1C(=O)Nc1ccn2nc(-c3ccccc3)nc2c1 [Example 11, 2-Methyl-2H-pyrazole-3,4-dicarboxylic acid 4-dimethylamide 3-[(2-phenyl-[1,2,4]triazolo[1,5-a]pyridin-7-yl)-amide]] | 0.9 nM | > 250 °C
Cn1ncc(C(=O)N2CCC2)c1C(=O)Nc1ccn2nc(-c3ccnc(F)c3)nc2c1 [Example 118, 4-(Azetidine-1-carbonyl)-2-methyl-2H-pyrazole-3-carboxylic acid [2-(2-fluoro-pyridin-4-yl)-[1,2,4]triazolo[1,5-a]pyridin-7-yl]-amide] | 6.78 nM | > 280 °C
CNC(=O)c1cnn(C)c1C(=O)Nc1ccn2nc(-c3ccccc3)nc2c1 [Example 23, N4,1-dimethyl-N5-(2-phenyl-[1,2,4]triazolo[1,5-a]pyridin-7-yl)-1H-pyrazole-4,5-dicarboxamide] | 4.25 nM | > 250 °C
Cn1ncc(C(=O)N2CCOCC2)c1C(=O)Nc1ccn2nc(-c3cccc(F)n3)nc2c1 [Example 121, 2-Methyl-4-(morpholine-4-carbonyl)-2H-pyrazole-3-carboxylic acid [2-(6-fluoro-pyridin-2-yl)-[1,2,4]triazolo[1,5-a]pyridin-7-yl]-amide] | 5.06 nM | 
COCCN(C)C(=O)c1cnn(C)c1C(=O)Nc1ccn2nc(-c3cccc(OC)c3)nc2c1 [Example 77, 2-Methyl-2H-pyrazole-3,4-dicarboxylic acid 4-[(2-methoxy-ethyl)-methyl-amide]3-{[2-(3-methoxy-phenyl)-[1,2,4]triazolo[1,5-a]pyridin-7-yl]-amide}] | 0.57 nM | 
CN(CCO)C(=O)c1cnn(C)c1C(=O)Nc1ccn2nc(N3CCOCC3)nc2c1 [Example 94, 2-Methyl-2H-pyrazole-3,4-dicarboxylic acid 4-[(2-hydroxy-ethyl)-methyl-amide]3-[(2-morpholin-4-yl-[1,2,4]triazolo[1,5-a]pyridin-7-yl)-amide]] | 20.4 nM | 
CC(C)OC(=O)c1cnn(C)c1C(=O)Nc1ccn2nc(-c3ccccc3)nc2c1 [Example 27, Isopropyl 1-methyl-5-(2-phenyl-[1,2,4]triazolo[1,5-a]pyridin-7-ylcarbamoyl)-1H-pyrazole-4-carboxylate] | 7.9 nM | 

— patent publication US8349824B2, “Triazolopyridine compounds” (Hoffmann-La Roche Inc., priority 2010, dated 2013)
